Measured values published in patent US10660874B2, “Ecteinamycin, compositions and uses thereof” (Wisconsin Alumni Research Foundation, priority 2014, dated 2020).
≈ marks a conversion by molar mass, not a printed value.

How the values were obtained:
[1] = tested on: S. aureus (ATCC #29213) cells; experiment: Membrane depolarization assay (DiOC2(3), flow cytometry); format: cell-based; conditions: 6 μg/mL, 15 minutes
Procedure: S. aureus (ATCC #29213) cells were grown to log phase (14 h) in Mueller Hinton Broth cation-adjusted (MHB50) and were diluted to 0.07 OD600 with media. One mL aliquots were transferred to 1.5 mL centrifuge tubes and treated with the following in triplicate: 10 μL DMSO (control), 10 μL of 600 μg/mL ecteinamycin, 10 μL of 3.2 mg/mL ecteinamycin (1), 10 μL of 500 μM carbonyl cyanide m-chlorophenythydrazone (CCCP), and 10 μL of 3.2 mg/mL rifampicin. Additionally, each tube received 10 μL of 3 mM DiOC2(3) (3,3′-diethyloxacarbocyanine iodide). The tubes were shaken for 15 minutes at room temperature. The cells were then analyzed with a FACSCalibur (BD Biosciences) flow cytometer and CellQuestPro software (BD Biosciences). Collected data represent the geometric means of fluorescence of 40,000 gated events.
Flow cytometry was used to determine if ecteinamycin, like other polyether ionophore antibiotics, depolarizes cell membranes. 3,3′-diethyloxacarbocyanine iodide (“DiOC2(3)”) fluoresces green in bacterial cells but shifts to red when the cell membrane is depolarized. Therefore, the ratio of red to green fluorescence is indicative of the membrane potential. S. aureus ATCC […] cells were treated with ecteinamycin at concentrations of 6 and 32 μg/mL.
All cells except the DMSO negative control were treated with DiOC2(3) and analyzed by flow cytometry. […]

[2] = tested on: S. cerevisiae; experiment: MIC against S. cerevisiae; format: cell-based; conditions: Saccharomyces cerevisiae
[3] = tested on: VRE (ATCC); experiment: MIC, dilution antimicrobial susceptibility test; format: cell-based, Vancomycin-resistant Enterococcus; conditions: Enterococcus
Procedure: Ecteinamycin was tested for antibacterial activity against C. difficile (ATCC BAA-1870), MRSA (ATCC #33591), MSSA (ATCC #29213), E. coli (ATCC #25922), P. aeruginosa (ATCC #27853), and VRE (ATCC), and MICs were determined using a dilution antimicrobial susceptibility test for aerobic (MRSA, MSSA, E. coli, P. aeruginosa, and VRE) and anaerobic (C. difficile) bacteria. Ecteinamycin was dissolved in DMSO, serially diluted to 10 concentrations (0.0313-32 μg/mL), and tested in a 96-well plate. […] Ecteinamycin and vancomycin were tested in triplicate. Six untreated media controls were included on each plate. For MRSA, MSSA, E. coli, and P. aeruginosa, the plates were incubated at 33° C. for 18 h. For C. difficile, the plate was incubated at 36° C. for 48 h anaerobically and then read visually using a mirror apparatus. All manipulations to the plate were done inside the anaerobe chamber. The MIC was determined as the lowest concentration that inhibited visible growth.

C=C1OC(=O)C(C(=O)CC2OC(C(C)C(O)C(CC)C(=O)C(C)(O)C3CCC(CC)(C4CCC(O)(C(C)OC)C(C)O4)O3)C(C)CC2C)=C1O (stereo not drawn) [ecteinamycin]
membrane depolarization (ratio of red to green fluorescence) [1]: demonstrated membrane depolarization
MIC [2]: 8 µg/mL (≈ 11.3 µM)
MIC [3]: 0.25 µg/mL (≈ 0.353 µM)
